± gives the standard error.
Test system: 621-103 (TSC2-rescued)
Test: relative viability vs DMSO; higher = less cytotoxic
Details: 0.0001 µM; serum: 10% FBS; 72 h
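Further: immortalized renal angiomyolipoma cells stably carrying empty vector or TSC2, dosed in 384-well plates in DMEM, viability normalized to vehicle-treated wells within each plate.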

Row | Compound | relative viability
1 | CC1(COc2ccc3c(c2)ncn3-c2ccc3cccc(N4CCC(N)CC4)c3n2)COC1 | 96 ± 0.22%
2 | CC1=NN(c2ccc(C)c(C)c2)C(=O)/C1=N\Nc1cccc(-c2cccc(C(=O)O)c2)c1O | 99.1 ± 1.1%
3 | CN(C)C(=O)[C@H](O)[C@H](Cc1ccccc1)NC(=O)c1cc2cc(Cl)ccc2[nH]1 | 112.8 ± 0.78%
4 | CN(C)c1ccc(-c2nc3ncc(Cl)c(N4CCN(CC(=O)Nc5nccs5)CC4)c3[nH]2)cc1 | 101 ± 2.5%
5 | COCC(=O)NC/C=C/c1ccc2ncnc(Nc3ccc(Oc4ccc(C)nc4)c(C)c3)c2c1 | 101 ± 1.9%
6 | COc1cc2ncnc(-n3nc(-c4ccccn4)nc3N)c2cc1OC | 106 ± 1.7%
7 | COc1ccc([C@]2(C#N)CC[C@@H](C(=O)O)CC2)cc1OC1CCCC1 | 102.2 ± 0.093%
8 | COc1ccnc2[nH]cc(C(=O)C(=O)N3CCN(C(=O)c4ccccc4)C[C@H]3C)c12 | 112 ± 3.3%
9 | C[C@@H]1CCN(C(=O)CC#N)C[C@@H]1N(C)c1ncnc2[nH]ccc12 | 104 ± 4.3%
10 | NC1(Cc2ccc(Cl)cc2)CCN(c2ncnc3[nH]ccc23)CC1 | 114 ± 2.5%
11 | O=C(NOCC1CC1)c1ccc(F)c(F)c1Nc1ccc(I)cc1Cl | 97.56 ± 0.82%
12 | OC(CN1CCN(c2cccc(Cl)c2)CC1)C(c1ccccc1)c1ccccc1 (stereo not given) | 83.9 ± 10%
13 | COc1cc2c(cc1O)CC[C@@H]1[C@@H]2CC[C@]2(C)[C@@H](O)CC[C@@H]12 [2-Methoxyestradiol] | 107 ± 2.6%
14 | C=CCNC1=C2C[C@@H](C)C[C@H](OC)[C@H](O)[C@@H](C)/C=C(\C)[C@H](OC(N)=O)[C@@H](OC)/C=C\C=C(/C)C(=O)NC(=CC1=O)C2=O [17-AAG (Geldanamycin)] | 104.5 ± 0.96%
15 | CO[C@H]1/C=C\C=C(/C)C(=O)NC2=CC(=O)C(NCCN(C)C)=C(C[C@@H](C)C[C@H](OC)[C@H](O)[C@@H](C)/C=C(\C)[C@@H]1OC(N)=O)C2=O [17-DMAG] | 90.6 ± 3%

Same assay, conditions: 0.001 µM; serum: 10% FBS; 72 h

Row | Compound | relative viability
16 | CC1(COc2ccc3c(c2)ncn3-c2ccc3cccc(N4CCC(N)CC4)c3n2)COC1 | 111.5 ± 0.64%
17 | CC1=NN(c2ccc(C)c(C)c2)C(=O)/C1=N\Nc1cccc(-c2cccc(C(=O)O)c2)c1O | 103 ± 3.9%
18 | CN(C)C(=O)[C@H](O)[C@H](Cc1ccccc1)NC(=O)c1cc2cc(Cl)ccc2[nH]1 | 108 ± 2.3%
19 | CN(C)c1ccc(-c2nc3ncc(Cl)c(N4CCN(CC(=O)Nc5nccs5)CC4)c3[nH]2)cc1 | 103.4 ± 0.042%
20 | COCC(=O)NC/C=C/c1ccc2ncnc(Nc3ccc(Oc4ccc(C)nc4)c(C)c3)c2c1 | 101.6 ± 0.36%
21 | COc1cc2ncnc(-n3nc(-c4ccccn4)nc3N)c2cc1OC | 107 ± 2.5%
22 | COc1ccc([C@]2(C#N)CC[C@@H](C(=O)O)CC2)cc1OC1CCCC1 | 98 ± 0.98%
23 | COc1ccnc2[nH]cc(C(=O)C(=O)N3CCN(C(=O)c4ccccc4)C[C@H]3C)c12 | 112 ± 1.2%
24 | C[C@@H]1CCN(C(=O)CC#N)C[C@@H]1N(C)c1ncnc2[nH]ccc12 | 100 ± 2.5%
25 | NC1(Cc2ccc(Cl)cc2)CCN(c2ncnc3[nH]ccc23)CC1 | 102 ± 1.4%
26 | O=C(NOCC1CC1)c1ccc(F)c(F)c1Nc1ccc(I)cc1Cl | 92.3 ± 5.6%
27 | OC(CN1CCN(c2cccc(Cl)c2)CC1)C(c1ccccc1)c1ccccc1 (stereo not given) | 85.7 ± 8.3%
28 | COc1cc2c(cc1O)CC[C@@H]1[C@@H]2CC[C@]2(C)[C@@H](O)CC[C@@H]12 [2-Methoxyestradiol] | 103.2 ± 0.73%
29 | C=CCNC1=C2C[C@@H](C)C[C@H](OC)[C@H](O)[C@@H](C)/C=C(\C)[C@H](OC(N)=O)[C@@H](OC)/C=C\C=C(/C)C(=O)NC(=CC1=O)C2=O [17-AAG (Geldanamycin)] | 104 ± 3%
30 | CO[C@H]1/C=C\C=C(/C)C(=O)NC2=CC(=O)C(NCCN(C)C)=C(C[C@@H](C)C[C@H](OC)[C@H](O)[C@@H](C)/C=C(\C)[C@@H]1OC(N)=O)C2=O [17-DMAG] | 41 ± 1.2%

Same assay, conditions: 0.01 µM; serum: 10% FBS; 72 h

Row | Compound | relative viability
31 | CC1(COc2ccc3c(c2)ncn3-c2ccc3cccc(N4CCC(N)CC4)c3n2)COC1 | 110 ± 3.6%
32 | CC1=NN(c2ccc(C)c(C)c2)C(=O)/C1=N\Nc1cccc(-c2cccc(C(=O)O)c2)c1O | 100.9 ± 0.81%
33 | CN(C)C(=O)[C@H](O)[C@H](Cc1ccccc1)NC(=O)c1cc2cc(Cl)ccc2[nH]1 | 108.2 ± 0.39%
34 | CN(C)c1ccc(-c2nc3ncc(Cl)c(N4CCN(CC(=O)Nc5nccs5)CC4)c3[nH]2)cc1 | 101.06 ± 0.096%
35 | COCC(=O)NC/C=C/c1ccc2ncnc(Nc3ccc(Oc4ccc(C)nc4)c(C)c3)c2c1 | 103.06 ± 0.024%
36 | COc1cc2ncnc(-n3nc(-c4ccccn4)nc3N)c2cc1OC | 109 ± 4%
37 | COc1ccc([C@]2(C#N)CC[C@@H](C(=O)O)CC2)cc1OC1CCCC1 | 97.1 ± 1.8%
38 | COc1ccnc2[nH]cc(C(=O)C(=O)N3CCN(C(=O)c4ccccc4)C[C@H]3C)c12 | 108 ± 1.6%
39 | C[C@@H]1CCN(C(=O)CC#N)C[C@@H]1N(C)c1ncnc2[nH]ccc12 | 99.134 ± 0.051%
40 | NC1(Cc2ccc(Cl)cc2)CCN(c2ncnc3[nH]ccc23)CC1 | 111 ± 2.4%
41 | O=C(NOCC1CC1)c1ccc(F)c(F)c1Nc1ccc(I)cc1Cl | 98.9 ± 2.7%
42 | OC(CN1CCN(c2cccc(Cl)c2)CC1)C(c1ccccc1)c1ccccc1 (stereo not given) | 95.1 ± 7.2%
43 | COc1cc2c(cc1O)CC[C@@H]1[C@@H]2CC[C@]2(C)[C@@H](O)CC[C@@H]12 [2-Methoxyestradiol] | 98.66 ± 0.82%
44 | C=CCNC1=C2C[C@@H](C)C[C@H](OC)[C@H](O)[C@@H](C)/C=C(\C)[C@H](OC(N)=O)[C@@H](OC)/C=C\C=C(/C)C(=O)NC(=CC1=O)C2=O [17-AAG (Geldanamycin)] | 72.4 ± 3.8%
45 | CO[C@H]1/C=C\C=C(/C)C(=O)NC2=CC(=O)C(NCCN(C)C)=C(C[C@@H](C)C[C@H](OC)[C@H](O)[C@@H](C)/C=C(\C)[C@@H]1OC(N)=O)C2=O [17-DMAG] | 5.591 ± 0.017%

Same assay, conditions: 0.1 µM; serum: 10% FBS; 72 h

Row | Compound | relative viability
46 | CC1(COc2ccc3c(c2)ncn3-c2ccc3cccc(N4CCC(N)CC4)c3n2)COC1 | 106 ± 3.9%
47 | CC1=NN(c2ccc(C)c(C)c2)C(=O)/C1=N\Nc1cccc(-c2cccc(C(=O)O)c2)c1O | 99.8 ± 1%
48 | CN(C)C(=O)[C@H](O)[C@H](Cc1ccccc1)NC(=O)c1cc2cc(Cl)ccc2[nH]1 | 106 ± 1.7%
49 | CN(C)c1ccc(-c2nc3ncc(Cl)c(N4CCN(CC(=O)Nc5nccs5)CC4)c3[nH]2)cc1 | 100.6 ± 0.64%
50 | COCC(=O)NC/C=C/c1ccc2ncnc(Nc3ccc(Oc4ccc(C)nc4)c(C)c3)c2c1 | 104 ± 1.2%
51 | COc1cc2ncnc(-n3nc(-c4ccccn4)nc3N)c2cc1OC | 108.3 ± 0.77%
52 | COc1ccc([C@]2(C#N)CC[C@@H](C(=O)O)CC2)cc1OC1CCCC1 | 106.2 ± 0.53%
53 | COc1ccnc2[nH]cc(C(=O)C(=O)N3CCN(C(=O)c4ccccc4)C[C@H]3C)c12 | 103 ± 1.8%
54 | C[C@@H]1CCN(C(=O)CC#N)C[C@@H]1N(C)c1ncnc2[nH]ccc12 | 102 ± 2.4%
55 | NC1(Cc2ccc(Cl)cc2)CCN(c2ncnc3[nH]ccc23)CC1 | 102 ± 5.5%
56 | O=C(NOCC1CC1)c1ccc(F)c(F)c1Nc1ccc(I)cc1Cl | 99.9 ± 2.7%
57 | OC(CN1CCN(c2cccc(Cl)c2)CC1)C(c1ccccc1)c1ccccc1 (stereo not given) | 98.58 ± 0.47%
58 | COc1cc2c(cc1O)CC[C@@H]1[C@@H]2CC[C@]2(C)[C@@H](O)CC[C@@H]12 [2-Methoxyestradiol] | 98.8 ± 2%
59 | C=CCNC1=C2C[C@@H](C)C[C@H](OC)[C@H](O)[C@@H](C)/C=C(\C)[C@H](OC(N)=O)[C@@H](OC)/C=C\C=C(/C)C(=O)NC(=CC1=O)C2=O [17-AAG (Geldanamycin)] | 14.3 ± 0.16%
60 | CO[C@H]1/C=C\C=C(/C)C(=O)NC2=CC(=O)C(NCCN(C)C)=C(C[C@@H](C)C[C@H](OC)[C@H](O)[C@@H](C)/C=C(\C)[C@@H]1OC(N)=O)C2=O [17-DMAG] | 5.287 ± 0.051%

Same assay, conditions: 1 µM; serum: 10% FBS; 72 h

Row | Compound | relative viability
61 | CC1(COc2ccc3c(c2)ncn3-c2ccc3cccc(N4CCC(N)CC4)c3n2)COC1 | 77.4 ± 2.8%
62 | CC1=NN(c2ccc(C)c(C)c2)C(=O)/C1=N\Nc1cccc(-c2cccc(C(=O)O)c2)c1O | 106.9 ± 0.69%
63 | CN(C)C(=O)[C@H](O)[C@H](Cc1ccccc1)NC(=O)c1cc2cc(Cl)ccc2[nH]1 | 106 ± 1.5%
64 | CN(C)c1ccc(-c2nc3ncc(Cl)c(N4CCN(CC(=O)Nc5nccs5)CC4)c3[nH]2)cc1 | 97.243 ± 0.044%
65 | COCC(=O)NC/C=C/c1ccc2ncnc(Nc3ccc(Oc4ccc(C)nc4)c(C)c3)c2c1 | 103.7 ± 0.92%
66 | COc1cc2ncnc(-n3nc(-c4ccccn4)nc3N)c2cc1OC | 110.4 ± 0.79%
67 | COc1ccc([C@]2(C#N)CC[C@@H](C(=O)O)CC2)cc1OC1CCCC1 | 93.85 ± 0.76%
68 | COc1ccnc2[nH]cc(C(=O)C(=O)N3CCN(C(=O)c4ccccc4)C[C@H]3C)c12 | 106 ± 1.2%
69 | C[C@@H]1CCN(C(=O)CC#N)C[C@@H]1N(C)c1ncnc2[nH]ccc12 | 107 ± 0.27%
70 | NC1(Cc2ccc(Cl)cc2)CCN(c2ncnc3[nH]ccc23)CC1 | 96.3 ± 4.4%
71 | O=C(NOCC1CC1)c1ccc(F)c(F)c1Nc1ccc(I)cc1Cl | 96.7 ± 3.3%
72 | OC(CN1CCN(c2cccc(Cl)c2)CC1)C(c1ccccc1)c1ccccc1 (stereo not given) | 83.3 ± 4.9%
73 | COc1cc2c(cc1O)CC[C@@H]1[C@@H]2CC[C@]2(C)[C@@H](O)CC[C@@H]12 [2-Methoxyestradiol] | 82.5 ± 3.2%
74 | C=CCNC1=C2C[C@@H](C)C[C@H](OC)[C@H](O)[C@@H](C)/C=C(\C)[C@H](OC(N)=O)[C@@H](OC)/C=C\C=C(/C)C(=O)NC(=CC1=O)C2=O [17-AAG (Geldanamycin)] | 6.05 ± 0.096%
75 | CO[C@H]1/C=C\C=C(/C)C(=O)NC2=CC(=O)C(NCCN(C)C)=C(C[C@@H](C)C[C@H](OC)[C@H](O)[C@@H](C)/C=C(\C)[C@@H]1OC(N)=O)C2=O [17-DMAG] | 6.16 ± 0.36%

Same assay, conditions: 10 µM; serum: 10% FBS; 72 h

Row | Compound | relative viability
76 | CC1(COc2ccc3c(c2)ncn3-c2ccc3cccc(N4CCC(N)CC4)c3n2)COC1 | 4.95 ± 0.59%
77 | CC1=NN(c2ccc(C)c(C)c2)C(=O)/C1=N\Nc1cccc(-c2cccc(C(=O)O)c2)c1O | 90.7 ± 4%
78 | CN(C)C(=O)[C@H](O)[C@H](Cc1ccccc1)NC(=O)c1cc2cc(Cl)ccc2[nH]1 | 104 ± 1.8%
79 | CN(C)c1ccc(-c2nc3ncc(Cl)c(N4CCN(CC(=O)Nc5nccs5)CC4)c3[nH]2)cc1 | 47.5 ± 2.9%
80 | COCC(=O)NC/C=C/c1ccc2ncnc(Nc3ccc(Oc4ccc(C)nc4)c(C)c3)c2c1 | 107.8 ± 0.28%
81 | COc1cc2ncnc(-n3nc(-c4ccccn4)nc3N)c2cc1OC | 48.2 ± 3.8%
82 | COc1ccc([C@]2(C#N)CC[C@@H](C(=O)O)CC2)cc1OC1CCCC1 | 93.4 ± 2.3%
83 | COc1ccnc2[nH]cc(C(=O)C(=O)N3CCN(C(=O)c4ccccc4)C[C@H]3C)c12 | 115 ± 1.5%
84 | C[C@@H]1CCN(C(=O)CC#N)C[C@@H]1N(C)c1ncnc2[nH]ccc12 | 96.7 ± 1.1%
85 | NC1(Cc2ccc(Cl)cc2)CCN(c2ncnc3[nH]ccc23)CC1 | 72 ± 0.83%
86 | O=C(NOCC1CC1)c1ccc(F)c(F)c1Nc1ccc(I)cc1Cl | 74.9 ± 1.4%
87 | OC(CN1CCN(c2cccc(Cl)c2)CC1)C(c1ccccc1)c1ccccc1 (stereo not given) | 79.1 ± 4.4%
88 | COc1cc2c(cc1O)CC[C@@H]1[C@@H]2CC[C@]2(C)[C@@H](O)CC[C@@H]12 [2-Methoxyestradiol] | 53.7 ± 0.91%
89 | C=CCNC1=C2C[C@@H](C)C[C@H](OC)[C@H](O)[C@@H](C)/C=C(\C)[C@H](OC(N)=O)[C@@H](OC)/C=C\C=C(/C)C(=O)NC(=CC1=O)C2=O [17-AAG (Geldanamycin)] | 6.31 ± 0.22%
90 | CO[C@H]1/C=C\C=C(/C)C(=O)NC2=CC(=O)C(NCCN(C)C)=C(C[C@@H](C)C[C@H](OC)[C@H](O)[C@@H](C)/C=C(\C)[C@@H]1OC(N)=O)C2=O [17-DMAG] | 3.07 ± 0.31%
